# Tested on: not given
# Assay: not given
# Conditions: not given
row,melting point,Compound
1,260 to 265 °C (dec.),"Nc1c(F)c(-c2ccc(C3CC3)nc2)nc(C(=O)O)c1Cl [Compound 36, 4-amino-5-chloro-6′-cyclopropyl-3-fluoro-[2,3′-bipyridine]-6-carboxylic acid]"

# Tested on: Key Broadleaf Weed and Crop Species
# Assay: Post-Emergent Test II (Table 5)
# Assay type: in vivo
# Conditions: Abutilon theophrasti, post-emergence, 336 h, ABUTH: velvetleaf (Abutilon theophrasti), application rate 70 (kg ai/ha; footnote: g ai/ha), read-out: Visual Growth Reduction (%) 14 Days After Application ABUTH
# In short: (§1)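 Visual injury ratings (0 = no injury, 100 = complete kill) taken 14 days after treatment, relative to untreated controls. Compounds, in an acetone/DMSO aqueous carrier with crop oil and surfactant, were applied by track sprayer at 187 L/ha, in a twofold dilution series from the top rate, to plants at the first to second true-leaf stage.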
row,Compound,pest or weed control at 70 g/ha [%]
1,"Nc1c(F)c(-c2ccc(C3CC3)nc2)nc(C(=O)O)c1Cl [Compound 36, 4-amino-5-chloro-6′-cyclopropyl-3-fluoro-[2,3′-bipyridine]-6-carboxylic acid]",85 to 94

# Same assay, conditions: Abutilon theophrasti, post-emergence, 336 h, ABUTH: velvetleaf (Abutilon theophrasti), application rate 140 (kg ai/ha; footnote: g ai/ha), read-out: Visual Growth Reduction (%) 14 Days After Application ABUTH
row,Compound,pest or weed control at 140 g/ha [%]
1,"Nc1c(F)c(-c2ccc(C3CC3)nc2)nc(C(=O)O)c1Cl [Compound 36, 4-amino-5-chloro-6′-cyclopropyl-3-fluoro-[2,3′-bipyridine]-6-carboxylic acid]",95 to 100

# Same assay, conditions: Amaranthus retroflexus, post-emergence, 336 h, AMARE: redroot pigweed (Amaranthus retroflexus), application rate 70 (kg ai/ha; footnote: g ai/ha), read-out: Visual Growth Reduction (%) 14 Days After Application AMARE
row,Compound,pest or weed control at 70 g/ha [%]
1,"Nc1c(F)c(-c2ccc(C3CC3)nc2)nc(C(=O)O)c1Cl [Compound 36, 4-amino-5-chloro-6′-cyclopropyl-3-fluoro-[2,3′-bipyridine]-6-carboxylic acid]",95 to 100

# Same assay, conditions: Amaranthus retroflexus, post-emergence, 336 h, AMARE: redroot pigweed (Amaranthus retroflexus), application rate 140 (kg ai/ha; footnote: g ai/ha), read-out: Visual Growth Reduction (%) 14 Days After Application AMARE
row,Compound,pest or weed control at 140 g/ha [%]
1,"Nc1c(F)c(-c2ccc(C3CC3)nc2)nc(C(=O)O)c1Cl [Compound 36, 4-amino-5-chloro-6′-cyclopropyl-3-fluoro-[2,3′-bipyridine]-6-carboxylic acid]",95 to 100

# Same assay, conditions: Brassica napus, post-emergence, 336 h, BRSSS: oilseed rape, canola (Brassica napus), application rate 70 (kg ai/ha; footnote: g ai/ha), read-out: Visual Growth Reduction (%) 14 Days After Application BRSSS
row,Compound,pest or weed control at 70 g/ha [%]
1,"Nc1c(F)c(-c2ccc(C3CC3)nc2)nc(C(=O)O)c1Cl [Compound 36, 4-amino-5-chloro-6′-cyclopropyl-3-fluoro-[2,3′-bipyridine]-6-carboxylic acid]",85 to 94

# Same assay, conditions: Brassica napus, post-emergence, 336 h, BRSSS: oilseed rape, canola (Brassica napus), application rate 140 (kg ai/ha; footnote: g ai/ha), read-out: Visual Growth Reduction (%) 14 Days After Application BRSSS
row,Compound,pest or weed control at 140 g/ha [%]
1,"Nc1c(F)c(-c2ccc(C3CC3)nc2)nc(C(=O)O)c1Cl [Compound 36, 4-amino-5-chloro-6′-cyclopropyl-3-fluoro-[2,3′-bipyridine]-6-carboxylic acid]",95 to 100

# Same assay, conditions: Chenopodium album, post-emergence, 336 h, CHEAL: lambsquarters (Chenopodium album), application rate 70 (kg ai/ha; footnote: g ai/ha), read-out: Visual Growth Reduction (%) 14 Days After Application CHEAL
row,Compound,pest or weed control at 70 g/ha [%]
1,"Nc1c(F)c(-c2ccc(C3CC3)nc2)nc(C(=O)O)c1Cl [Compound 36, 4-amino-5-chloro-6′-cyclopropyl-3-fluoro-[2,3′-bipyridine]-6-carboxylic acid]",95 to 100

# Same assay, conditions: Chenopodium album, post-emergence, 336 h, CHEAL: lambsquarters (Chenopodium album), application rate 140 (kg ai/ha; footnote: g ai/ha), read-out: Visual Growth Reduction (%) 14 Days After Application CHEAL
row,Compound,pest or weed control at 140 g/ha [%]
1,"Nc1c(F)c(-c2ccc(C3CC3)nc2)nc(C(=O)O)c1Cl [Compound 36, 4-amino-5-chloro-6′-cyclopropyl-3-fluoro-[2,3′-bipyridine]-6-carboxylic acid]",95 to 100

# Same assay, conditions: Euphorbia heterophylla, post-emergence, 336 h, EPHHL: wild poinsettia (Euphorbia heterophylla), application rate 70 (kg ai/ha; footnote: g ai/ha), read-out: Visual Growth Reduction (%) 14 Days After Application EPHHL
row,Compound,pest or weed control at 70 g/ha [%]
1,"Nc1c(F)c(-c2ccc(C3CC3)nc2)nc(C(=O)O)c1Cl [Compound 36, 4-amino-5-chloro-6′-cyclopropyl-3-fluoro-[2,3′-bipyridine]-6-carboxylic acid]",95 to 100

# Same assay, conditions: Euphorbia heterophylla, post-emergence, 336 h, EPHHL: wild poinsettia (Euphorbia heterophylla), application rate 140 (kg ai/ha; footnote: g ai/ha), read-out: Visual Growth Reduction (%) 14 Days After Application EPHHL
row,Compound,pest or weed control at 140 g/ha [%]
1,"Nc1c(F)c(-c2ccc(C3CC3)nc2)nc(C(=O)O)c1Cl [Compound 36, 4-amino-5-chloro-6′-cyclopropyl-3-fluoro-[2,3′-bipyridine]-6-carboxylic acid]",95 to 100

# Same assay, conditions: Helianthus annuus, post-emergence, 336 h, HELAN: sunflower (Helianthus annuus), application rate 70 (kg ai/ha; footnote: g ai/ha), read-out: Visual Growth Reduction (%) 14 Days After Application HELAN
row,Compound,pest or weed control at 70 g/ha [%]
1,"Nc1c(F)c(-c2ccc(C3CC3)nc2)nc(C(=O)O)c1Cl [Compound 36, 4-amino-5-chloro-6′-cyclopropyl-3-fluoro-[2,3′-bipyridine]-6-carboxylic acid]",95 to 100

# Same assay, conditions: Helianthus annuus, post-emergence, 336 h, HELAN: sunflower (Helianthus annuus), application rate 140 (kg ai/ha; footnote: g ai/ha), read-out: Visual Growth Reduction (%) 14 Days After Application HELAN
row,Compound,pest or weed control at 140 g/ha [%]
1,"Nc1c(F)c(-c2ccc(C3CC3)nc2)nc(C(=O)O)c1Cl [Compound 36, 4-amino-5-chloro-6′-cyclopropyl-3-fluoro-[2,3′-bipyridine]-6-carboxylic acid]",95 to 100

# Same assay, conditions: Viola tricolor, post-emergence, 336 h, VIOTR: wild pansy (Viola tricolor), application rate 70 (kg ai/ha; footnote: g ai/ha), read-out: Visual Growth Reduction (%) 14 Days After Application VIOTR
row,Compound,pest or weed control at 70 g/ha [%]
1,"Nc1c(F)c(-c2ccc(C3CC3)nc2)nc(C(=O)O)c1Cl [Compound 36, 4-amino-5-chloro-6′-cyclopropyl-3-fluoro-[2,3′-bipyridine]-6-carboxylic acid]",0 to 29

# Same assay, conditions: Viola tricolor, post-emergence, 336 h, VIOTR: wild pansy (Viola tricolor), application rate 140 (kg ai/ha; footnote: g ai/ha), read-out: Visual Growth Reduction (%) 14 Days After Application VIOTR
row,Compound,pest or weed control at 140 g/ha [%]
1,"Nc1c(F)c(-c2ccc(C3CC3)nc2)nc(C(=O)O)c1Cl [Compound 36, 4-amino-5-chloro-6′-cyclopropyl-3-fluoro-[2,3′-bipyridine]-6-carboxylic acid]",0 to 29

# Tested on: Key Grass and Sedge Weeds as well as Grass Crops
# Assay: Post-Emergent Test II (Table 6)
# Assay type: in vivo
# Conditions: post-emergence, 336 h, CYPSS, 70 g ai/ha, 14 days after application, read-out: Visual Growth Reduction (%) 14 Days After Application CYPSS
# In short: as §1
row,Compound,pest or weed control at 70 g/ha [%]
1,"Nc1c(F)c(-c2ccc(C3CC3)nc2)nc(C(=O)O)c1Cl [Compound 36, 4-amino-5-chloro-6′-cyclopropyl-3-fluoro-[2,3′-bipyridine]-6-carboxylic acid]",95 to 100

# Same assay, conditions: post-emergence, 336 h, CYPSS, 140 g ai/ha, 14 days after application, read-out: Visual Growth Reduction (%) 14 Days After Application CYPSS
row,Compound,pest or weed control at 140 g/ha [%]
1,"Nc1c(F)c(-c2ccc(C3CC3)nc2)nc(C(=O)O)c1Cl [Compound 36, 4-amino-5-chloro-6′-cyclopropyl-3-fluoro-[2,3′-bipyridine]-6-carboxylic acid]",95 to 100

# Same assay, conditions: post-emergence, 336 h, DIGSA: crabgrass (Digitaria sanguinalis), 70 g ai/ha, 14 days after application, read-out: Visual Growth Reduction (%) 14 Days After Application DIGSA
row,Compound,pest or weed control at 70 g/ha [%]
1,"Nc1c(F)c(-c2ccc(C3CC3)nc2)nc(C(=O)O)c1Cl [Compound 36, 4-amino-5-chloro-6′-cyclopropyl-3-fluoro-[2,3′-bipyridine]-6-carboxylic acid]",60 to 74

# Same assay, conditions: post-emergence, 336 h, DIGSA: crabgrass (Digitaria sanguinalis), 140 g ai/ha, 14 days after application, read-out: Visual Growth Reduction (%) 14 Days After Application DIGSA
row,Compound,pest or weed control at 140 g/ha [%]
1,"Nc1c(F)c(-c2ccc(C3CC3)nc2)nc(C(=O)O)c1Cl [Compound 36, 4-amino-5-chloro-6′-cyclopropyl-3-fluoro-[2,3′-bipyridine]-6-carboxylic acid]",75 to 84

# Same assay, conditions: post-emergence, 336 h, ECHSS, 70 g ai/ha, 14 days after application, read-out: Visual Growth Reduction (%) 14 Days After Application ECHSS
row,Compound,pest or weed control at 70 g/ha [%]
1,"Nc1c(F)c(-c2ccc(C3CC3)nc2)nc(C(=O)O)c1Cl [Compound 36, 4-amino-5-chloro-6′-cyclopropyl-3-fluoro-[2,3′-bipyridine]-6-carboxylic acid]",85 to 94

# Same assay, conditions: post-emergence, 336 h, ECHSS, 140 g ai/ha, 14 days after application, read-out: Visual Growth Reduction (%) 14 Days After Application ECHSS
row,Compound,pest or weed control at 140 g/ha [%]
1,"Nc1c(F)c(-c2ccc(C3CC3)nc2)nc(C(=O)O)c1Cl [Compound 36, 4-amino-5-chloro-6′-cyclopropyl-3-fluoro-[2,3′-bipyridine]-6-carboxylic acid]",85 to 94

# Same assay, conditions: post-emergence, 336 h, ORYSS (crop), 70 g ai/ha, 14 days after application, read-out: Visual Growth Reduction (%) 14 Days After Application ORYSS
row,Compound,pest or weed control at 70 g/ha [%]
1,"Nc1c(F)c(-c2ccc(C3CC3)nc2)nc(C(=O)O)c1Cl [Compound 36, 4-amino-5-chloro-6′-cyclopropyl-3-fluoro-[2,3′-bipyridine]-6-carboxylic acid]",0 to 29

# Same assay, conditions: post-emergence, 336 h, ORYSS (crop), 140 g ai/ha, 14 days after application, read-out: Visual Growth Reduction (%) 14 Days After Application ORYSS
row,Compound,pest or weed control at 140 g/ha [%]
1,"Nc1c(F)c(-c2ccc(C3CC3)nc2)nc(C(=O)O)c1Cl [Compound 36, 4-amino-5-chloro-6′-cyclopropyl-3-fluoro-[2,3′-bipyridine]-6-carboxylic acid]",0 to 29

# Same assay, conditions: post-emergence, 336 h, SETFA: giant foxtail (Setaria faberi), 70 g ai/ha, 14 days after application, read-out: Visual Growth Reduction (%) 14 Days After Application SETFA
row,Compound,pest or weed control at 70 g/ha [%]
1,"Nc1c(F)c(-c2ccc(C3CC3)nc2)nc(C(=O)O)c1Cl [Compound 36, 4-amino-5-chloro-6′-cyclopropyl-3-fluoro-[2,3′-bipyridine]-6-carboxylic acid]",95 to 100

# Same assay, conditions: post-emergence, 336 h, SETFA: giant foxtail (Setaria faberi), 140 g ai/ha, 14 days after application, read-out: Visual Growth Reduction (%) 14 Days After Application SETFA
row,Compound,pest or weed control at 140 g/ha [%]
1,"Nc1c(F)c(-c2ccc(C3CC3)nc2)nc(C(=O)O)c1Cl [Compound 36, 4-amino-5-chloro-6′-cyclopropyl-3-fluoro-[2,3′-bipyridine]-6-carboxylic acid]",95 to 100

# Same assay, conditions: post-emergence, 336 h, SORVU: grain sorghum (Sorghum vulgare), 70 g ai/ha, 14 days after application, read-out: Visual Growth Reduction (%) 14 Days After Application SORVU
row,Compound,pest or weed control at 70 g/ha [%]
1,"Nc1c(F)c(-c2ccc(C3CC3)nc2)nc(C(=O)O)c1Cl [Compound 36, 4-amino-5-chloro-6′-cyclopropyl-3-fluoro-[2,3′-bipyridine]-6-carboxylic acid]",60 to 74

# Same assay, conditions: post-emergence, 336 h, SORVU: grain sorghum (Sorghum vulgare), 140 g ai/ha, 14 days after application, read-out: Visual Growth Reduction (%) 14 Days After Application SORVU
row,Compound,pest or weed control at 140 g/ha [%]
1,"Nc1c(F)c(-c2ccc(C3CC3)nc2)nc(C(=O)O)c1Cl [Compound 36, 4-amino-5-chloro-6′-cyclopropyl-3-fluoro-[2,3′-bipyridine]-6-carboxylic acid]",60 to 74

# Same assay, conditions: post-emergence, 336 h, TRZSS (crop), 70 g ai/ha, 14 days after application, read-out: Visual Growth Reduction (%) 14 Days After Application TRZSS
row,Compound,pest or weed control at 70 g/ha [%]
1,"Nc1c(F)c(-c2ccc(C3CC3)nc2)nc(C(=O)O)c1Cl [Compound 36, 4-amino-5-chloro-6′-cyclopropyl-3-fluoro-[2,3′-bipyridine]-6-carboxylic acid]",30 to 44

# Same assay, conditions: post-emergence, 336 h, TRZSS (crop), 140 g ai/ha, 14 days after application, read-out: Visual Growth Reduction (%) 14 Days After Application TRZSS
row,Compound,pest or weed control at 140 g/ha [%]
1,"Nc1c(F)c(-c2ccc(C3CC3)nc2)nc(C(=O)O)c1Cl [Compound 36, 4-amino-5-chloro-6′-cyclopropyl-3-fluoro-[2,3′-bipyridine]-6-carboxylic acid]",45 to 59

# Same assay, conditions: post-emergence, 336 h, ZEAMX: maize, corn (Zea mays), 70 g ai/ha, 14 days after application, read-out: Visual Growth Reduction (%) 14 Days After Application ZEAMX
row,Compound,pest or weed control at 70 g/ha [%]
1,"Nc1c(F)c(-c2ccc(C3CC3)nc2)nc(C(=O)O)c1Cl [Compound 36, 4-amino-5-chloro-6′-cyclopropyl-3-fluoro-[2,3′-bipyridine]-6-carboxylic acid]",95 to 100

# Same assay, conditions: post-emergence, 336 h, ZEAMX: maize, corn (Zea mays), 140 g ai/ha, 14 days after application, read-out: Visual Growth Reduction (%) 14 Days After Application ZEAMX
row,Compound,pest or weed control at 140 g/ha [%]
1,"Nc1c(F)c(-c2ccc(C3CC3)nc2)nc(C(=O)O)c1Cl [Compound 36, 4-amino-5-chloro-6′-cyclopropyl-3-fluoro-[2,3′-bipyridine]-6-carboxylic acid]",95 to 100
